In US10729688B2, “Hepatitis B antiviral agents” (Enanta Pharmaceuticals, Inc., priority 2018, dated 2020):
pEC50: −log10 of the molar value.

What was measured:
[1] = Compound toxicity, ATPLite total ATP levels; type: cell-based; conditions: human, HepAD38 cells; 15,000 cells/well; three days after compound addition; total ATP levels reduced by 50% relative to no drug controls
Method: (§1) Methods: HepAD38 cells were maintained as previously reported (Ladner et al, Antimicrob. Agents Chemother. 1997, 4, 1715). Briefly, cells were passaged upon attaining confluency in DMEM/F12 media in the presence of 10% FBS, Penn/Strep, 250 μg/mL G418, and 1 ug/ml tetracycline. Compounds were screened by first washing cells three times with PBS to remove tetracycline, and plating in 96 well plates at 35,000 cells/well. Compounds dissolved in DMSO were then diluted 1:200 into wells containing cells. Five days after compound addition, material was harvested for analysis. For an extended 8 day analysis, cells were plated and treated as described above, but media and compound were refreshed on day 2 and day 5 post initial treatment.
Compound toxicity was evaluated by seeding cells at 15,000 cells/well and treating with compound as described above.

HBV = experiment: HepAD38 antiviral assay: reduction of viral product accumulation; type: cell-based; conditions: Hepatitis B virus, 120 h; HepAD38 cells, tetracycline removed; harvest five days after compound addition; viral product (virion DNA by qPCR, or HBsAg/HBeAg by ELISA) reduced by 50% relative to no drug controls
Method: as §1
On harvest day, virion DNA was obtained by lysing with Sidestep Lysis and Stabilization Buffer and then quantified via quantitative real time PCR. Commercially available ELISA kits were used to quantitate the viral proteins HBsAg (Alpco) or HbeAg (US Biological) by following the manufacturer's recommended protocol after diluting samples to match the linear range of their respective assays. Irrespective of readout, compound concentrations that reduce viral product accumulation in the cell lysates or supernatants by 50% relative to no drug controls (EC50) are reported; EC50 ranges are as follows: A<0.1 μM; B 0.1-0.2 μM; C>0.2 μM.

O=C(Nc1cc(F)c(F)c(F)c1)N1Cc2c(N3CCCS3(=O)=O)cnn2C[C@@H]1C1CC1 [Example 73]
CC50 at 3 days [1]: > 25 µM
pEC50 (HBV): > 7.00
